According to PubChem BioAssay (NCI):
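A five-concentration, 48-hour dose response in 96-well plates underlies each endpoint, interpolated linearly between surrounding concentrations. TGI: total growth inhibition.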

What was measured:
Experiment in all cases: NCI tumour cell line growth inhibition, 48 h
OVCAR-3 ovarian = system: OVCAR-3 ovarian
HL-60(TB) leukemia = system: HL-60(TB) leukemia
MDA-MB-435 = system: MDA-MB-435
EKVX NSCLC = system: EKVX NSCLC
HOP-92 NSCLC = system: HOP-92 NSCLC
KM12 colon = system: KM12 colon
TK-10 renal = system: TK-10 renal
786-0 renal = system: 786-0 renal
ACHN renal = system: ACHN renal
A498 renal = system: A498 renal

Row | Compound | TGI (OVCAR-3 ovarian) [µM] | TGI (HL-60(TB) leukemia) [µM] | TGI (MDA-MB-435) [µM] | TGI (EKVX NSCLC) [µM] | TGI (HOP-92 NSCLC) [µM] | TGI (KM12 colon) [µM] | TGI (TK-10 renal) [µM] | TGI (786-0 renal) [µM] | TGI (ACHN renal) [µM] | TGI (A498 renal) [µM]
1 | N[C@H](Cc1ccc2oc3cc(=O)c4ccccc4c-3nc2c1)C(=O)O | > 100 | > 100 | 30.3 | > 100 | > 100 | > 100 | > 100 | > 100 | > 100 | > 100
2 | COc1cc2c(cc1O)NC(=O)[C@@H]1CCCN1C2=O | > 100 |  | > 100 | > 100 | > 100 | > 100 | > 100 | > 100 | > 100 | > 100
3 | OC(C/C=N/N=C/CC(O)(C(F)(F)Cl)C(F)(F)Cl)(C(F)(F)Cl)C(F)(F)Cl | > 10 | > 10 | > 10 | > 10 | > 10 | > 10 | > 10 | > 10 | > 10 | > 10
4 | O=P1(Cc2ccccc2)N(Cc2ccccc2)[C@@H]2CCCC[C@H]2N1Cc1ccccc1 | 20.9 | 19.8 | 19.8 | 22.4 |  | 22.4 | 26.7 | 27.2 | 25.5 | 
5 | c1ccc2c3[nH]c(c2c1)=Nc1ccc(cc1)-c1nc2ccc(cc2o1)N=c1[nH]c(c2ccccc12)=Nc1ccc2nc(oc2c1)-c1ccc(cc1)N=3 | > 100 | 12.4 | > 100 | > 100 | > 100 | > 100 | > 100 | > 100 | 35.5 | > 100
6 | CCOC(=O)C(NC(=O)c1ccccc1)(N1CCN(c2cc3c(cc2F)c(=O)c(C(=O)O)cn3C2CC2)CC1)C(F)(F)F (stereo not given) | 48.6 | 36.5 | 45.2 | 67.1 | 38 | 31.7 |  | > 100 | 58.9 | 72
7 | O=C(CBr)c1ccc2cc(Br)c3ccccc3c2c1 | 46.9 | 69.6 | 42.6 | 54.5 | 45.7 | 44.1 | 36.9 | > 100 | > 100 | 
8 | C=CC1(CC[C@]2(c3ccc(OC)c(OC)c3)C=[N+]([O-])O[C@H](O[C@@H]3CCCC[C@H]3C(C)(C)c3ccccc3)C2)OCC(C)(C)CO1 | 25.1 | 4.81 | > 51.1 | 45.5 | > 46.6 | 41.4 | > 67.8 | > 45.8 | > 50 | > 61
9 | CCOC(=O)c1ccc(-c2ccc(Cl)cc2)[nH]1 | > 10 | > 10 | > 10 | > 10 | > 10 | > 10 | > 10 | > 10 | > 10 | 
10 | COCCn1cnc2c(Cl)nc(Nc3ccccc3)nc21 | 34.1 | 63.3 | 40.7 | 51.9 |  | > 100 | > 100 | > 100 | 36.4 | > 100
11 | COc1cccc(CC(=O)N2CCN(CCCc3ccccc3)CC2)c1 | > 100 | > 100 | > 100 | > 100 | > 100 | > 100 | > 100 | > 100 | > 100 | > 100
12 | CC(=O)c1c(N=[N+]=[N-])c2cccc3c2n(c1=O)CCC3 | 18.9 |  | 42.7 | 54.1 | 67.7 | 28.7 | 59 | 33.5 | 54.2 | 55.6
13 | CCCCCCc1cc2cc(C(=O)Nc3ccc(F)cc3)c(=N)oc2cc1O | > 100 | 4.62 | 10.1 | 21.2 |  | 10.1 |  | 77.6 | > 100 | > 100
14 | COc1ccc(CNc2nc(NC3CCCCC3)nc(NC3CCCCC3)n2)cc1 | > 100 | > 100 | > 100 | > 100 | > 100 | 3.84 | > 100 | 70.3 | > 100 | 
15 | CN1CCc2c(sc3[nH]c(=S)[nH]c(=S)c23)C1 | > 100 | > 100 | > 100 | > 100 | > 100 | > 100 | > 100 | > 100 | > 100 | 
16 | O=Cc1ccc(-c2ccc(-c3ccc(CO)s3)o2)s1 |  | > 22.3 | > 49.3 | > 69.1 | 61.5 | > 100 | 0.627 | > 48.9 | > 100 | 0.353
17 | CCCCC1Cc2cc(O)ccc2-c2nc3cc(O)ccc3n21 (stereo not given) (tested in a mixture with another compound) | 77.7 | 41.9 | 26.1 | 51.9 | 30.5 | 75.1 | 43.3 | 52.9 | 33.7 | 
18 | COc1ccc(N2C(=O)C(=O)N(c3ccc(N=Nc4ccccc4)cc3)C2=S)cc1 |  | > 100 | 48.9 | 37 | 31.7 | 32.9 | 50.4 | 35.5 | 34.4 | 52.3
19 | CC(=O)OCC1OC(n2c(C)c(N=Nc3ccc(Cl)cc3)c(C)c(C#N)c2=S)C(OC(C)=O)C(OC(C)=O)C1OC(C)=O (stereo not given) | > 100 | > 100 | > 100 |  | 20.2 | > 100 | > 100 | 42.4 | > 100 | 
20 | CCOc1cc(NC(C)=O)ccc1C(=O)NNS(=O)(=O)c1ccc(NC(C)=O)cc1 | > 100 | 78.8 | > 100 | > 100 | > 100 | > 100 |  | > 100 | > 100 | > 100
21 | O=C(Cn1c2ccc(Br)cc2c2nc3ccccc3nc21)NNC(=S)NC1CCCCC1 | 22.8 |  | 34.2 | 43.1 | 27.1 | 48.2 | 28.7 | 28.9 | 29.6 | 35.1
22 | C/C=C\C(CC(=O)NCC(=O)c1c[nH]c2ccccc12)CC(=O)OC (stereo not given) | > 100 |  | > 100 | > 100 | > 100 | > 100 | > 100 | > 100 | > 100 | > 100
